From patent publication US9518061B2, “Substituted pyrazolylpyrazole derivative and use of same as herbicide” (KYOYU AGRI CO., LTD., priority 2013, dated 2016)

Experiments:
Chenopodium album [1] = test: Farming soil treatment test; format: in vivo; conditions: soil surface spray prior to weed growth, 30 days
Experimental: (§1) 2. Farming Soil Treatment Test
(§2) Field soil was filled into a 1/6000 are pot followed by seeding with Digitaria ciliaris, Chenopodium album and Amaranthus retroflexus and covering with soil.
(§3) Wettable powder of compounds of formula (D shown in Table 1 prepared in compliance with the preparation examples were diluted with water to the prescribed amount of chemical and uniformly sprayed onto each soil surface layer using 10 liters of sprayed water per are prior to weed growth following seeding.
(§4) After treating for 30 days in a glass greenhouse at an average atmospheric temperature of 30° C., the herbicidal efficacy thereof was investigated.
(§5) Evaluation of herbicidal efficacy was carried out in the same manner as the above-mentioned Test Example 1.

Amaranthus retroflexus [2] = test: Farming soil treatment test; format: in vivo; conditions: soil surface spray prior to weed growth, 30 days
Experimental: as §1, §2, §3, §4, §5

Digitaria ciliaris [3] = test: Farming soil treatment test; format: in vivo; conditions: soil surface spray prior to weed growth, 30 days
Experimental: as §1, §2, §3, §4, §5

Rice plants = test: Paddy herbicidal activity test, phytotoxicity to transplanted rice; format: in vivo; conditions: rice transplanted in 2.0 leaf stage, 30 days
Experimental: (§6) 1. Paddy Herbicidal Activity Test
(§7) Rice paddy soil was filled into a 1/10000 are pot followed by the addition of suitable amounts of water and chemical fertilizer, kneading, seeding with Echinochloa crus-galli, Monochoria vaginalis and Scirpus juncoides and maintaining in an irrigated state at a water depth of 3 cm.
(§8) Wettable powder of Target Compound (I) shown in Table 1 prepared in compliance with the preparation examples were diluted with a suitable amount of water, rice plants in the 2.0 leaf stage were transplanted during 3.5 leaf stage of Echinochloa crus-galli, and treated by dropping in chemical in the prescribed amount per are using a pipette.
as §4
(§9) Evaluation of herbicidal efficacy was carried out by comparing growth inhibition rate (%) with an untreated group, while evaluation of phytotoxicity was carried out by comparing growth inhibition rate (%) with the state of a complete eradication group, and were evaluated at 11 levels indicated below.

Chenopodium album [4] = test: Weed foliar treatment test; format: in vivo; conditions: foliar spray, 3 weeks
Experimental: (§10) 3. Weed Foliar Treatment Test
(§11) Soil was filled into a 1/6000 are pot followed by seeding with Digitaria ciliaris, Chenopodium album and Amaranthus retroflexus, covering with soil, and cultivating in a glass greenhouse at an average atmospheric temperature of 25° C.
(§12) Wettable powder of Target Compound (I) shown in Table 1 prepared in compliance with the preparation examples were diluted with water to the prescribed amount of chemical and uniformly sprayed onto the weeds using 15 liters of sprayed water per are when Digitaria ciliaris had grown to the 1.0 to 2.0 leaf stage.
(§13) After treating for 3 weeks in a glass greenhouse at an average atmospheric temperature of 25° C., the herbicidal efficacy thereof was investigated.
as §5

Amaranthus retroflexus [5] = test: Weed foliar treatment test; format: in vivo; conditions: foliar spray, 3 weeks
Experimental: as §10, §11, §12, §13, §5

Digitaria ciliaris [6] = test: Weed foliar treatment test; format: in vivo; conditions: foliar spray at 1.0 to 2.0 leaf stage of Digitaria ciliaris, 3 weeks
Experimental: as §10, §11, §12, §13, §5

Scirpus juncoides = test: Paddy herbicidal activity test; format: in vivo; conditions: irrigated paddy pot, 30 days
Experimental: as §6, §7, §8, §4, §9

Monochoria vaginalis = test: Paddy herbicidal activity test; format: in vivo; conditions: irrigated paddy pot, 30 days
Experimental: as §6, §7, §8, §4, §9

Echinochloa crus-galli = test: Paddy herbicidal activity test; format: in vivo; conditions: irrigated paddy pot, treated at 3.5 leaf stage of Echinochloa crus-galli, 30 days
Experimental: as §6, §7, §8, §4, §9

Compound	herbicidal efficacy (growth inhibition rate level) Chenopodium album (Chenopodium album [1]; 5g a.i./10a)	herbicidal efficacy (growth inhibition rate level) Chenopodium album (Chenopodium album [1]; 10g a.i./10a)	herbicidal efficacy (growth inhibition rate level) Amaranthus retroflexus (Amaranthus retroflexus [2]; 5g a.i./10a)	herbicidal efficacy (growth inhibition rate level) Amaranthus retroflexus (Amaranthus retroflexus [2]; 10g a.i./10a)	herbicidal efficacy (growth inhibition rate level) Digitaria ciliaris (Digitaria ciliaris [3]; 5g a.i./10a)	herbicidal efficacy (growth inhibition rate level) Digitaria ciliaris (Digitaria ciliaris [3]; 10g a.i./10a)	phytotoxicity (growth inhibition rate level) Rice plants (Rice plants; 1g a.i./10a)	phytotoxicity (growth inhibition rate level) Rice plants (Rice plants; 5g a.i./10a)	herbicidal efficacy (growth inhibition rate level) Chenopodium album (Chenopodium album [4]; 5g a.i./10a)	herbicidal efficacy (growth inhibition rate level) Chenopodium album (Chenopodium album [4]; 10g a.i./10a)	herbicidal efficacy (growth inhibition rate level) Amaranthus retroflexus (Amaranthus retroflexus [5]; 5g a.i./10a)	herbicidal efficacy (growth inhibition rate level) Amaranthus retroflexus (Amaranthus retroflexus [5]; 10g a.i./10a)	herbicidal efficacy (growth inhibition rate level) Digitaria ciliaris (Digitaria ciliaris [6]; 5g a.i./10a)	herbicidal efficacy (growth inhibition rate level) Digitaria ciliaris (Digitaria ciliaris [6]; 10g a.i./10a)	herbicidal efficacy (growth inhibition rate level) Scirpus juncoides (Scirpus juncoides; 1g a.i./10a)	herbicidal efficacy (growth inhibition rate level) Scirpus juncoides (Scirpus juncoides; 5g a.i./10a)	herbicidal efficacy (growth inhibition rate level) Monochoria vaginalis (Monochoria vaginalis; 1g a.i./10a)	herbicidal efficacy (growth inhibition rate level) Monochoria vaginalis (Monochoria vaginalis; 5g a.i./10a)	herbicidal efficacy (growth inhibition rate level) Echinochloa crus-galli (Echinochloa crus-galli; 1g a.i./10a)	herbicidal efficacy (growth inhibition rate level) Echinochloa crus-galli (Echinochloa crus-galli; 5g a.i./10a)	other results
N#Cc1cnn(-c2nn3c(c2Cl)CCCC3)c1N(CCCl)C(=O)C(F)(F)F [Compound 1, N-(2-chloroethyl)-N-(1-(3-chloro-4,5,6,7-tetrahydropyrazolo[1,5-a]pyridin-2-yl)-4-cyanopyrazol-5-yl)-2,2,2-trifluoroacetamide]	10 (100%)	10 (100%)	10 (100%)	10 (100%)	10 (100%)	10 (100%)	0 (0 (exponent): 0% to less than 10% (growth inhibition rate))	1 (10% to less than 20%)	10 (100%)	10 (100%)	10 (100%)	10 (100%)	10 (100%)	10 (100%)	9 (90% to less than 100%)	10 (100%)	8 (80% to less than 90%)	9 (90% to less than 100%)	9 (90% to less than 100%)	10 (100%)	melting point: 87 to 89 °C
N#Cc1cnn(-c2nn3c(c2Cl)CCCC3)c1NC(=O)C(F)(F)F [Control agent 4.185]	4 (40% to less than 50%)	5 (50% to less than 60%)	5 (50% to less than 60%)	6 (60% to less than 70%)	3 (30% to less than 40%)	5 (50% to less than 60%)	2 (20% to less than 30%)	2 (20% to less than 30%)	5 (50% to less than 60%)	6 (60% to less than 70%)	6 (60% to less than 70%)	6 (60% to less than 70%)	4 (40% to less than 50%)	6 (60% to less than 70%)	5 (50% to less than 60%)	6 (60% to less than 70%)	0 (0 (exponent): 0% to less than 10% (growth inhibition rate))	0 (0 (exponent): 0% to less than 10% (growth inhibition rate))	2 (20% to less than 30%)	4 (40% to less than 50%)	–
COCCN(C(=O)C(F)(F)F)c1c(C#N)cnn1-c1nn2c(c1Cl)CCCC2 [Compound 2, N-(1-(3-chloro-4,5,6,7-tetrahydropyrazolo[1,5-a]pyridin-2-yl)-4-cyanopyrazol-5-yl)-N-(2-methoxyethyl)-2,2,2-trifluoroacetamide]	10 (100%)	10 (100%)	10 (100%)	10 (100%)	10 (100%)	10 (100%)	0 (0 (exponent): 0% to less than 10% (growth inhibition rate))	1 (10% to less than 20%)	10 (100%)	10 (100%)	10 (100%)	10 (100%)	10 (100%)	10 (100%)	9 (90% to less than 100%)	9 (90% to less than 100%)	8 (80% to less than 90%)	9 (90% to less than 100%)	9 (90% to less than 100%)	9 (90% to less than 100%)	melting point: 102 to 103 °C
COCCN(C(=O)C(F)(F)F)c1c([N+](=O)[O-])cnn1-c1nn2c(c1Cl)CCCC2 [Compound 20]	10 (100%)	10 (100%)	10 (100%)	10 (100%)	10 (100%)	10 (100%)	1 (10% to less than 20%)	1 (10% to less than 20%)	10 (100%)	10 (100%)	10 (100%)	10 (100%)	10 (100%)	10 (100%)	9 (90% to less than 100%)	10 (100%)	9 (90% to less than 100%)	9 (90% to less than 100%)	9 (90% to less than 100%)	10 (100%)	–
